Test results reported in ChEMBL document CHEMBL1143244, “Conformational studies of 3-amino-1-alkyl-cyclopentane carboxamide CCR2 antagonists leading to new spirocyclic antagonists” (Bioorg Med Chem Lett, 2008).

Columns and labels:
[1] = target: T1, C-C chemokine receptor type 2 (Homo sapiens, UniProt P41597); assay: Displacement of [125I]MCP1 from human CCR2 expressed in human monocytes; assay type: cell-based
Target sequence in this assay (P41597 whole entry): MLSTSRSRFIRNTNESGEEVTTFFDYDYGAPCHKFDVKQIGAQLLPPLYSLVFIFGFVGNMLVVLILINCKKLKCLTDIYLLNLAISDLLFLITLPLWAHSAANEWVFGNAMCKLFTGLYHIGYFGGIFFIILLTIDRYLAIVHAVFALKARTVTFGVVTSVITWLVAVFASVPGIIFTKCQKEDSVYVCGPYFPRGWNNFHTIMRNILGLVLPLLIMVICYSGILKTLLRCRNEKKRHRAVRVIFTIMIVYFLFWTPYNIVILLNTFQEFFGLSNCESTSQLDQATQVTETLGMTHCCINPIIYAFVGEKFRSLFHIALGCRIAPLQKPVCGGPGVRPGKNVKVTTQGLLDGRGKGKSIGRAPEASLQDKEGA

[2] = target: T1, C-C chemokine receptor type 2; assay: Displacement of [125I]MCP1 from human CCR2 expressed in human monocytes at 1 uM; assay type: cell-based
Target sequence in this assay (P41597 whole entry, looked up): as the sequence (P41597 whole entry) above

| IC50 [1] [nM] | inhibition [2] [%] | Compound |
| --- | --- | --- |
| 4.6 |  | C[C@H]1CN([C@@H]2CC[C@@]3(CCO[C@H]3OCc3cc(F)cc(C(F)(F)F)c3)C2)CC[C@@]12C=Cc1ccccc12 |
| 115 |  | C[C@H]1CN([C@@H]2CC[C@@]3(CCO[C@@H]3OCc3cc(F)cc(C(F)(F)F)c3)C2)CC[C@@]12C=Cc1ccccc12 |
| 1.4 |  | CC(C)[C@]1(C(=O)NCc2cc(F)cc(C(F)(F)F)c2)CC[C@@H](N2CC[C@@]3(C=Cc4ccccc43)[C@@H](C)C2)C1 |
|  | 18 | C[C@H]1CN([C@@H]2CCC3(CCN(Cc4cc(F)cc(C(F)(F)F)c4)C3=O)C2)CC[C@@]12C=Cc1ccccc12 (some centres undefined) |
